Among the data in patent EP3120851A1, “4-AMINO-6-(2,6-DICHLOROPHENYL)-8-METHYL-2-(PHENYLAMINO)-PYRIDO[2,3-D]PYRIMIDIN-7(8H)-ONE FOR TREATMENT OF SOLID CANCERS” (Pangaea Biotech S.L., priority 2015, dated 2017) are IC50 and cytostatic activity values, retold here.

As usually defined, the IC50 is the concentration needed to halve the response being measured. Lower therefore signals inhibition by little substance.

The test system of one assay is A431. Description: MTT proliferation assay, single agent. The format is cell-based. The following applies: Homo sapiens, A-431, SCC, 72 h, mean of several independent experiments. As for the experimental part: (§1) The compound of formula (1) was tested using a Thiazolyl Blue Tetrazolium Bromide (MTT) proliferation assay in a panel of tumor cell lines of different origins.
(§2) All culture materials were obtained from Biological Industries (Kibbutz Beit Haemek, Israel) or Invitrogen (Paisley, Scotland, United Kingdom). The non-tumor cell lines HF and HACAT were provided by Vall d'Hebrón Hospital and GmbH, respectively. The PC9 naïve cell line was provided by Mayumi Ono and, the H3122, HCC78 and 11-18 by Daniel Costa. The PC9-GR1, PC9-GR2, PC9-GR3, PC9-GR4, PC9-GR5 and PC9-ER cell lines were derived in house by exposing the parental PC9 cell line to increasing concentrations of erlotinib (ER) or gefitinib (GR). The rest of the cell lines in which compound (1) was tested were purchased from ATCC (H23, H1975, H2228, A549, H460, Calu-6, H1650, SK-MES-1, EBC1, SNU1, AGS, N87, PC3, BxPC3, DLD1, HT29, SW48, SCC9,FaDu, AU565, Gingival, Prostate, SU-DHL-1 and A431). All cell lines were maintained in RPMI medium supplemented with 10% FBS, 50 µg/mL penicillin-streptomycin and 2 mM L-Glutamine. All cells were grown in a humidified atmosphere with 5% CO2 at 37°C.
(§3) Cell viability in response to single agent treatment was assessed by the Thiazolyl Blue Tetrazolium Bromide (MTT) (Sigma, St Louis, MO) assay. Cells from each cell line were seeded at 2000 to 10000 per well in 96-well plates. […] After treatment, cells were incubated with medium containing MTT (0.75 mg/mL in medium) for 1-2 h at 37°C. Culture medium with MTT was removed and formazan crystals reabsorbed in 100 µL DMSO (Sigma, St. Louis, MO). Cell viability was determined by measuring the absorbance at 492 nm, using a microplate reader (BioWhittaker, Walkersville, MD).
(§4) The IC50s shown are the mean of several independent experiments. Standard errors are also listed Table 2. SCC means squamous cell carcinoma, ADC means adenocarcinoma, GBM means glioblastoma.
In general terms: Tetrazolium dyes change colour on reduction, which living cells bring about.

In another assay the test system is A549. Description: MTT proliferation assay, single agent. Type of assay: cell-based. The following applies: Homo sapiens, Lung ADC, KRAS, 72 h, mean of several independent experiments. As for the experimental part: as §1, §2, §3, §4
In a further assay the test system is CD74-ROS1 (G2032). The assay can be described thus: MTT proliferation assay, single agent. The format is cell-based. The following applies: Lung ADC, ROS1 translocated, 72 h, mean of several independent experiments. On the procedure: as §1, §2, §3, §4
Another assay deals with CD74-ROS1 (wt). The assay can be described thus: MTT proliferation assay, single agent. Type of assay: cell-based. The following applies: Lung ADC, ROS1 translocated, 72 h, mean of several independent experiments. As for the experimental part:
as §1, §2, §3, §4

In a further assay the test system is DLD1. Description: MTT proliferation assay, single agent. Type of assay: cell-based. The following applies: Homo sapiens, DLD-1, Colon ADC, KRAS, 72 h, mean of several independent experiments. As for the experimental part: as §1, §2, §3, §4
Another assay deals with H3122. Description: MTT proliferation assay, single agent. Type of assay: cell-based. The conditions noted are these: Homo sapiens, NCI-H3122, Lung ADC, ALK-EML4 (v1), 72 h, mean of several independent experiments. As for the experimental part: as §1, §2, §3, §4
The subject of the next assay is H520. Description: MTT proliferation assay, single agent. The format is cell-based. The following applies: Homo sapiens, NCI-H520, SCC Lung, DDR2 wt, 72 h, mean of several independent experiments. On the procedure:
as §1, §2, §3, §4

The next assay has as its system HCC78. The assay can be described thus: MTT proliferation assay, single agent. Type of assay: cell-based. The conditions noted are these: Homo sapiens, Lung ADC, ROS1-SLC34A2, 72 h, mean of several independent experiments. On the procedure: as §1, §2, §3, §4
For another assay, the system named is HT29. Description: MTT proliferation assay, single agent. Type of assay: cell-based. The following applies: Homo sapiens, HT-29, Colon ADC, BRAF V600E, 72 h, mean of several independent experiments. As for the experimental part: as §1, §2, §3, §4
The subject of a further assay is L239R+T654M. Description: MTT proliferation assay, single agent. Type of assay: cell-based. The conditions noted are these: SCC Lung, DDR2 mutated, 72 h, mean of several independent experiments. On the procedure:
as §1, §2, §3, §4

The next assay concerns PC9-GR2. Description: MTT proliferation assay, single agent. The following applies: Lung ADC, EGFR ex19, 72 h, mean of several independent experiments. The format is cell-based. As for the experimental part: as §1, §2, §3, §4
In the next assay the test system is PC9-GR4. The assay can be described thus: MTT proliferation assay, single agent. The format is cell-based. The following applies: Lung ADC, EGFR ex19, 72 h, mean of several independent experiments. As for the experimental part: as §1, §2, §3, §4
A further assay concerns SCC9. The assay can be described thus: MTT proliferation assay, single agent. The format is cell-based. The conditions noted are these: Homo sapiens, SCC-9, SCC Head&Neck, DDR2 wt, 72 h, mean of several independent experiments. As for the experimental part:
as §1, §2, §3, §4

A further assay deals with SK-MES-1. Description: MTT proliferation assay, single agent. Type of assay: cell-based. The following applies: Homo sapiens, SCC Lung, DDR2 wt, 72 h, mean of several independent experiments. As for the experimental part: as §1, §2, §3, §4
The next assay relates to SW48. Description: MTT proliferation assay, single agent. Type of assay: cell-based. The following applies: Homo sapiens, Colon ADC, EGFR ex18, 72 h, mean of several independent experiments. As for the experimental part:
as §1, §2, §3, §4

The subject of a further assay is WM793. Description: MTT proliferation assay, single agent. The format is cell-based. The conditions noted are these: Homo sapiens, Melanoma, BRAF V600E, 72 h, mean of several independent experiments. As for the experimental part: as §1, §2, §3, §4
The next assay relates to UACC903. Description: MTT proliferation assay, single agent. Type of assay: cell-based. The conditions noted are these: Homo sapiens, UACC-903, Melanoma, BRAF V600E, 72 h, mean of several independent experiments.
The test system of assay [1] is mantle cell lymphoma (MCL) cell lines. The conditions noted are these: Eur. J. Med. Chem., 2014, 86, 664-675; cited from earlier work.

As for `Cn1c(=O)c(-c2c(Cl)cccc2Cl)cc2c(N)nc(Nc3ccccc3)nc21` [Compound (1), 4-amino-6-(2,6-dichlorophenyl)-8-methyl-2-(phenylamino)-pyrido[2,3-d]pyrimidin-7(8H)-one], the IC50 was found to be 1350 nM in the assay with A431; 490 nM with A549; 2000 nM with CD74-ROS1 (G2032); 1900 nM in the assay with CD74-ROS1 (wt); 1000 nM in the assay with DLD1; 1340 nM with H3122. In addition, the IC50 in the assay on H520 amounted to 350 nM; with HCC78, 920 nM; with HT29 it was 2000 nM; in the assay with L239R+T654M, 600 nM; in the assay on PC9-GR2 it was 2160 nM; in the assay on PC9-GR4 it was 2100 nM. The IC50 was determined as 4350 nM with SCC9; 570 nM in the assay on SK-MES-1; 750 nM with SW48; 1600 nM in the assay on WM793; 3350 nM in the assay with UACC903. Moreover, the cytostatic activity result in assay [1] is given as “good cytostatic activity”.
